This note sets out measurements from PubChem BioAssay AID270 (DTP/NCI, 2004).

This assay has as its system BDF1 mice, s.c. Lewis lung carcinoma, T/C %. The assay is described as follows: NCI In Vivo Anticancer Drug Screen. Data for tumor model Lewis Lung Carcinoma (subcutaneous) in B6D2F1 (BDF1) mice. Summed up:
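First, mice carry a transplantable tumor. Next, groups receive either compound or vehicle. Finally, survival or tumor dimensions in the dosed animals are divided by the corresponding control figure.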

“And” between values parts separate entries of the source, which are not always exact repeats. Equal values may be shown once. Results filed as inconclusive are left out.

`Clc1ccc(C(c2ccccc2Cl)C(Cl)Cl)cc1` (configuration not stated): the T/C runs as follows: (endpoint: mean tumor weight, dose: 62.5 mg/kg/injection, schedule: Q01DX011 (sc), vehicle: steriod suspending solution, higher = larger tumour) 98 % of control; (endpoint: mean tumor weight, dose: 125.0 mg/kg/injection, schedule: Q01DX011 (sc), vehicle: steriod suspending solution, higher = larger tumour) 113 % of control; (endpoint: mean tumor weight, dose: 250.0 mg/kg/injection, schedule: Q01DX011 (sc), vehicle: steriod suspending solution, higher = larger tumour) 84 % of control; (endpoint: mean tumor weight, dose: 500.0 mg/kg/injection, schedule: Q01DX011 (sc), vehicle: steriod suspending solution, higher = larger tumour) 99 % of control.

Consider `COc1ccc2c(=O)cc(-c3ccccc3)n(C)c2c1`, for which the T/C (endpoint: mean tumor weight, dose: 50.0 mg/kg/injection, schedule: Q01DX011 (ip), vehicle: saline, higher = larger tumour) is 109 % of control; the T/C (endpoint: mean tumor weight, dose: 100.0 mg/kg/injection, schedule: Q01DX011 (ip), vehicle: saline, higher = larger tumour) is 83 % of control; the T/C (endpoint: mean tumor weight, dose: 200.0 mg/kg/injection, schedule: Q01DX011 (ip), vehicle: saline, higher = larger tumour) is 79 % of control.

On to `C=C1C(=O)OC2CC1C(O)C/C(C)=C/CC/C(C)=C/C(O)CC2C` (configuration not stated), for which the T/C (endpoint: median survival time, dose: 1.56 mg/kg/injection, schedule: Q01DX009 (ip), vehicle: Klucel (hydroxypropylcellulose) (HPC), higher = longer survival) was 90 % of control; the T/C (endpoint: median survival time, dose: 3.12 mg/kg/injection, schedule: Q01DX009 (ip), vehicle: Klucel (hydroxypropylcellulose) (HPC), higher = longer survival) was 108 % of control; the T/C (endpoint: median survival time, dose: 6.25 mg/kg/injection, schedule: Q01DX009 (ip), vehicle: Klucel (hydroxypropylcellulose) (HPC), higher = longer survival) is 93 % of control; the T/C (endpoint: median survival time, dose: 12.5 mg/kg/injection, schedule: Q01DX009 (ip), vehicle: Klucel (hydroxypropylcellulose) (HPC), higher = longer survival) is 92 % of control; the T/C (endpoint: median survival time, dose: 25.0 mg/kg/injection, schedule: Q01DX009 (ip), vehicle: Klucel (hydroxypropylcellulose) (HPC), higher = longer survival) is 99 % of control.

For the compound `CS(=O)(=O)OCC(O)C(O)COS(C)(=O)=O` (configuration not stated), the T/C by setting is: (endpoint: mean tumor weight, dose: 125.0 mg/kg/injection, schedule: Q01DX011 (ip), vehicle: saline, higher = larger tumour) 87 % of control; (endpoint: mean tumor weight, dose: 250.0 mg/kg/injection, schedule: Q01DX011 (ip), vehicle: saline, higher = larger tumour) 77 % of control; (endpoint: mean tumor weight, dose: 500.0 mg/kg/injection, schedule: Q01DX011 (ip), vehicle: other, higher = larger tumour) 75 % of control; (endpoint: mean tumor weight, dose: 500.0 mg/kg/injection, schedule: Q01DX011 (ip), vehicle: saline, higher = larger tumour) 59 % of control; (endpoint: mean tumor weight, dose: 750.0 mg/kg/injection, schedule: Q01DX011 (ip), vehicle: other, higher = larger tumour) 93 % of control; (endpoint: mean tumor weight, dose: 1000.0 mg/kg/injection, schedule: Q01DX011 (ip), vehicle: other, higher = larger tumour) 55 % of control.

Regarding `CC(=O)OC(C)C1C2=C(C(=O)CC1(C)O)C(=O)c1c(ccc(-c3ccc4c(c3O)C(=O)C3=C(C4=O)C(C(C)OC(C)=O)C(C)(O)CC3=O)c1O)C2=O` (configuration not stated), the T/C was 112 % of control (endpoint: median survival time, dose: 0.1 mg/kg/injection, schedule: Q01DX009 (ip), vehicle: saline + alcohol, higher = longer survival); 122 % of control (endpoint: median survival time, dose: 0.38 mg/kg/injection, schedule: Q01DX009 (ip), vehicle: saline + alcohol, higher = longer survival); 119 % of control (endpoint: median survival time, dose: 0.75 mg/kg/injection, schedule: Q01DX009 (ip), vehicle: saline + alcohol, higher = longer survival); 97 % of control (endpoint: median survival time, dose: 1.5 mg/kg/injection, schedule: Q01DX009 (ip), vehicle: saline + alcohol, higher = longer survival); 101 % of control (endpoint: median survival time, dose: 1.56 mg/kg/injection, schedule: Q01DX009 (ip), vehicle: saline with Tween-80, higher = longer survival).

On to `CC(C)n1c2c([n+](C)c1/C=C/c1ccccc1)C(=O)c1ccccc1C2=O`, for which the T/C (endpoint: median survival time, dose: 0.5 mg/kg/injection, schedule: Q01DX009 (ip), vehicle: saline, higher = longer survival) is 96 % of control and the T/C (endpoint: median survival time, dose: 1.0 mg/kg/injection, schedule: Q01DX009 (ip), vehicle: saline, higher = longer survival) was 110 % of control.

For `Nc1cc(Cl)cc(Cl)c1`, the T/C (endpoint: mean tumor weight, dose: 29.0 mg/kg/injection, schedule: Q01DX011 (ip), vehicle: other, higher = larger tumour) was 90 % of control; the T/C (endpoint: mean tumor weight, dose: 44.0 mg/kg/injection, schedule: Q01DX011 (ip), vehicle: other, higher = larger tumour) is 65 % of control; the T/C (endpoint: mean tumor weight, dose: 66.0 mg/kg/injection, schedule: Q01DX011 (ip), vehicle: other, higher = larger tumour) was 98 % of control.

On to `O=NN(CCCl)C(=O)NC1C2CC3CC(C2)CC1C3` (configuration not stated), for which the T/C by setting is: (endpoint: median survival time, dose: 10.0 mg/kg/injection, schedule: Q01DX001 (ip), vehicle: Klucel (hydroxypropylcellulose) (HPC), higher = longer survival) 99 % of control and 111 % of control; (endpoint: median survival time, dose: 20.0 mg/kg/injection, schedule: Q01DX001 (ip), vehicle: Klucel (hydroxypropylcellulose) (HPC), higher = longer survival) 100 % of control; (endpoint: median survival time, dose: 25.0 mg/kg/injection, schedule: Q01DX001 (ip), vehicle: saline with Tween-80, higher = longer survival) 102 % of control; (endpoint: median survival time, dose: 38.0 mg/kg/injection, schedule: Q01DX001 (ip), vehicle: saline with Tween-80, higher = longer survival) 101 % of control; (endpoint: median survival time, dose: 40.0 mg/kg/injection, schedule: Q01DX001 (ip), vehicle: Klucel (hydroxypropylcellulose) (HPC), higher = longer survival) 106 % of control; (endpoint: median survival time, dose: 57.0 mg/kg/injection, schedule: Q01DX001 (ip), vehicle: saline with Tween-80, higher = longer survival) 96 % of control. The T/C by setting is: (endpoint: median survival time, dose: 80.0 mg/kg/injection, schedule: Q01DX001 (ip), vehicle: Klucel (hydroxypropylcellulose) (HPC), higher = longer survival) 110 % of control; (endpoint: median survival time, dose: 85.0 mg/kg/injection, schedule: Q01DX001 (ip), vehicle: saline with Tween-80, higher = longer survival) 99 % of control and 121 % of control; (endpoint: median survival time, dose: 160.0 mg/kg/injection, schedule: Q01DX001 (ip), vehicle: Klucel (hydroxypropylcellulose) (HPC), higher = longer survival) 113 % of control; (endpoint: median tumor weight (est.), dose: 25.0 mg/kg/injection, schedule: Q01DX001 (ip), vehicle: DMSO, higher = larger tumour) 39 % of control; (endpoint: median tumor weight (est.), dose: 25.0 mg/kg/injection, schedule: Q01DX001 (sc), vehicle: olive oil, sesame oil, peanut oil, higher = larger tumour) 80 % of control; (endpoint: median tumor weight (est.), dose: 38.0 mg/kg/injection, schedule: Q01DX001 (sc), vehicle: olive oil, sesame oil, peanut oil, higher = larger tumour) 60 % of control. For the same compound, the T/C reads like this: (endpoint: median tumor weight (est.), dose: 57.0 mg/kg/injection, schedule: Q01DX001 (ip), vehicle: DMSO, higher = larger tumour) 3 % of control; (endpoint: median tumor weight (est.), dose: 57.0 mg/kg/injection, schedule: Q01DX001 (sc), vehicle: olive oil, sesame oil, peanut oil, higher = larger tumour) 52 % of control; (endpoint: median tumor weight (est.), dose: 80.0 mg/kg/injection, schedule: Q01DX001 (ip), vehicle: saline with Tween-80, higher = larger tumour) 53 % of control; (endpoint: median tumor weight (est.), dose: 85.0 mg/kg/injection, schedule: Q01DX001 (sc), vehicle: olive oil, sesame oil, peanut oil, higher = larger tumour) 36 % of control; (endpoint: median tumor weight (est.), dose: 161.0 mg/kg/injection, schedule: Q01DX001 (ip), vehicle: saline with Tween-80, higher = larger tumour) 60 % of control; (endpoint: median tumor weight (est.), dose: 215.0 mg/kg/injection, schedule: Q01DX001 (ip), vehicle: saline with Tween-80, higher = larger tumour) 7 % of control.

With `Cc1cc2c(c3oc(C4(C)OC4C4OC4C)cc(=O)c13)C(=O)c1c(O)c(C3CC(C)(N(C)C)C(O)C(C)O3)cc(C3CC(N(C)C)C(O)C(C)O3)c1C2=O` (configuration not stated), the T/C (endpoint: median survival time, dose: 4.0 micrograms/kg/injection, schedule: Q01DX009 (ip), vehicle: DMSO, higher = longer survival) is 105 % of control; the T/C (endpoint: median survival time, dose: 8.0 micrograms/kg/injection, schedule: Q01DX009 (ip), vehicle: DMSO, higher = longer survival) was 108 % of control; the T/C (endpoint: median survival time, dose: 16.0 micrograms/kg/injection, schedule: Q01DX009 (ip), vehicle: DMSO, higher = longer survival) was 100 % of control.

As for `Nc1ncc(CNc2ccc(C(=O)NC(CCC(=O)O)C(=O)O)cc2)c(N)n1` (configuration not stated), the T/C reads like this: (endpoint: median survival time, dose: 50.0 mg/kg/injection, schedule: Q01DX009 (ip), vehicle: Klucel (hydroxypropylcellulose) (HPC), higher = longer survival) 94 % of control; (endpoint: median survival time, dose: 100.0 mg/kg/injection, schedule: Q01DX009 (ip), vehicle: Klucel (hydroxypropylcellulose) (HPC), higher = longer survival) 100 % of control; (endpoint: median survival time, dose: 400.0 mg/kg/injection, schedule: Q01DX009 (ip), vehicle: Klucel (hydroxypropylcellulose) (HPC), higher = longer survival) 117 % of control.

With `CC1=C(/C=C/C(C)=C/C=C/C(C)=C/C(=O)O)C(C)(C)CCC1`, the T/C is 109 % of control (endpoint: median survival time, dose: 6.25 mg/kg/injection, schedule: Q01DX005 (ip), vehicle: saline with Tween-80, higher = longer survival); 102 % of control (endpoint: median survival time, dose: 8.0 mg/kg/injection, schedule: Q01DX009 (ip), vehicle: saline with Tween-80, higher = longer survival); 93 % of control (endpoint: median survival time, dose: 16.0 mg/kg/injection, schedule: Q01DX009 (ip), vehicle: saline with Tween-80, higher = longer survival); 93 % of control (endpoint: median survival time, dose: 32.0 mg/kg/injection, schedule: Q01DX009 (ip), vehicle: saline with Tween-80, higher = longer survival).

For `OCN(CO)c1nc(N(CO)CO)nc(N(CO)CO)n1`, the T/C runs as follows: (endpoint: median survival time, dose: 6.25 mg/kg/injection, schedule: Q01DX009 (ip), vehicle: saline with Tween-80, higher = longer survival) 109 % of control; (endpoint: median survival time, dose: 12.5 mg/kg/injection, schedule: Q01DX009 (ip), vehicle: saline with Tween-80, higher = longer survival) 107 % of control; (endpoint: median survival time, dose: 25.0 mg/kg/injection, schedule: Q01DX009 (ip), vehicle: saline with Tween-80, higher = longer survival) 102 % of control.

As for `OCC1OC(n2cnc3c2NC=NC[C@H]3O)CC1O` (some centres not stated), the T/C is, setting by setting: (endpoint: median survival time, dose: 0.05 mg/kg/injection, schedule: Q03HX024 (ip), vehicle: saline, higher = longer survival) 110 % of control; (endpoint: median survival time, dose: 0.1 mg/kg/injection, schedule: Q03HX024 (ip), vehicle: saline, higher = longer survival) 86 % of control; (endpoint: median survival time, dose: 0.4 mg/kg/injection, schedule: Q03HX024 (ip), vehicle: saline, higher = longer survival) 90 % of control.
